Where two headings read alike, the source gives them in different places.
What was measured:
[1] = test system: body temperature of normothermic rats; assay: effect on body temperature of normothermic rats; assay type: in vivo; conditions: Rattus norvegicus, po, oesophageal tube, 1% methylcellulose, rectal temperature, read-out: ED^-1.5° C. (dosage which lowered the body temperature by 1.5° C.)
Protocol: 4. The effect on body temperature was investigated on normothermic rats weighing between 120 and 140 g. The test substances were administered by oesophageal tube as a trituration in 1% methylcellulose (1.0 ml/100 g of animal). From the lowering of rectal temperature observed after various dosages, the ED^-1.5° C. was calculated by linear regression analysis as the dosage which lowered the body temperature by 1.5° C.

acute toxicity in rats = conditions: in vivo, po; rat, both sexes, oesophageal tube, death within 14 days
Protocol: (§1) 5. The acute toxicity was determined in mice or rats of both sexes with an average weight of 20 g. The test substances were administered by oesophageal tube as a trituration in 1% methylcellulose (0.2 ml/10 g of animal). Wherever possible the LD50 was calculated according to LITCHFIELD and WILCOXON (J. Pharmacol. exp. Therap. 96, 99 (1949)) from the percentage of animals which died within 14 days after receiving various doses.

[2] = test system: heat-induced pain in mice; assay: effect on heat-induced pain in mice (CHEN and BECKMAN); assay type: in vivo; conditions: Mus musculus, po; male mice, oesophageal tube, 1% methylcellulose; read-out: ED^100 (dosage which doubled the reaction time)
Protocol: 2. The effect on heat-induced pain in mice was investigated using the method of CHEN and BECKMAN (Science 113, 631 (1951). Male mice with an average weight of 20 g were given the test substances as a trituration in 1% methylcellulose (0.1 ml/10 g of animal by oesophageal tube. From the lengthening of the individual reaction time observed after various doses, the ED^100 was calculated by linear regression analysis as the dosage which doubled the reaction time.

[3] = test system: mechanically induced pain; assay: effect on mechanically induced pain, tail clamp method (HAFFNER); assay type: in vivo; conditions: Mus musculus, po, 0.5 h, male mice, oesophageal tube, 1% methylcellulose, 30 minute intervals, read-out: ED^50 (percentage of animals which showed no pain-reaction)
[4] = test system: pain of inflammation in rats; assay: effect on the pain of inflammation in rats (RANDALL and SELITTO); assay type: in vivo, rat; conditions: sc, male rats, oesophageal tube, 1% methylcellulose, after subcutaneous yeast
Protocol: 1. The effect on the pain of inflammation in rats was tested using the method of RANDALL and SELITTO (Arch. int. Pharmacodyn. 111, 409 (1957)). The test substances were administered to male rats weighing between 100 and 130 g as a trituration in 1% methylcellulose (1.0 ml/100 g of animal) 90 or 135 minutes after subcutaneous administration of yeast by oesophageal tube. From the pain threshold measured 90 or 45 minutes after administration of the various doses, the ED^50 was determined by linear regression analysis as the dosage which raised the pain threshold by 50%. The following

acute toxicity in mice = conditions: in vivo, po; mouse, both sexes, oesophageal tube, death within 14 days; read-out: LD^50 Mouse
Protocol: as §1

[5] = 0.75 h, pain threshold 45 minutes after administration, read-out: ED^50 after 45 minutes (dosage which raised the pain threshold by 50%)
[6] = 1.5 h, pain threshold 90 minutes after administration, read-out: ED^50 after 90 minutes (dosage which raised the pain threshold by 50%)

| Structure (SMILES) | ED (-1.5 degC) [1] [mg/kg] | LD50 at 336 h (acute toxicity in rats) [mg/kg] | ED100 [2] [mg/kg] | ED50 [3] [mg/kg] | ED50 [4, 5] [mg/kg] | ED50 [4, 6] [mg/kg] | LD50 at 336 h (acute toxicity in mice) [mg/kg] |
| --- | --- | --- | --- | --- | --- | --- | --- |
| Cn1c2c(ccc1=O)C(=O)CCC2 [Substance A, 1-methyl-7,8-dihydro-2,5(1H,6H)-quinolinedione] | 29 | 489 | 71 | 80 | 8.7 | 8.1 | 767 |
| CN1C(=O)CCC2=C1CCCC2=O [Substance C, 1-methyl-3,4,7,8-tetrahydro-2,5(1H,6H)-quinolinedione] | 26 | 748 | 99 | 129 | 15 | 21 | 985 |
| CCN1C(=O)CCC2=C1CCCC2=O [Substance I, 1-ethyl-3,4,7,8-tetrahydro-2,5(1H,6H)-quinolinedione] | 22 |  | 70 | 55 | 13 | 16 |  |
| Cc1cc2c(n(C)c1=O)CCCC2=O [Substance F, 1,3-dimethyl-7,8-dihydro-2,5(1H,6H)-quinolinedione] | 36 | 396 | 109 | 86 | 12.5 | 12.1 | 296 |
| CCn1c2c(c(C)cc1=O)C(=O)CCC2 [Substance G, 1-ethyl-4-methyl-7,8-dihydro-2,5(1H,6H)-quinolinedione] | 11 |  | 59 | 26 | 5.1 | 5.9 |  |
| CC1CC2=C(CCCC2=O)NC1=O (stereo not drawn) [Substance B, 3-methyl-3,4,7,8-tetrahydro-2,5(1H,6H)-quinolinedione] | 35 | 659 | 155 | 100 | 37 | 39 | 1220 |
| Cc1cc2c([nH]c1=O)CCCC2=O [Substance E, 3-methyl-7,8-dihydro-2,5(1H,6H)-quinolinedione] | 34 |  | 135 | 102 | 31 | 36 | 825 |
| Cc1cc(=O)[nH]c2c1C(=O)CCC2 [Substance D, 4-methyl-7,8-dihydro-2,5(1H,6H)-quinolinedione] | 25 | 1370 | 98 | 129 | 21 | 34 |  |
| CCCCn1c2c(c(C)cc1=O)C(=O)CCC2 [Substance H, 1-n-butyl-4-methyl-7,8-dihydro-2,5(1H,6H)-quinolinedione] | 36 |  | 101 | 50 |  | 19.1 |  |

Source: patent publication US5068334A, “Pharmaceutical compositions containing quinolin-2,5-diones, new quinolin-2,5-diones and processes for the preparation thereof” (Karl Thomae GmbH, priority 1988, dated 1991)
